Source: patent US8399465B2, “Compounds with two fused bicyclic heteroaryl moieties as modulators of leukotriene A4 hydrolase” (Janssen Pharmaceutica NV, priority 2009, dated 2013)
Structures can show the parent of a compound that is named as a salt.

Legend:
[1] = target: T1, recombinant human LTA4 hydrolase (rhLTA4H) (Homo sapiens, UniProt P09960); test: Recombinant human LTA4 hydrolase assay for LTA4 hydrolase inhibitor activity; format: biochemical; conditions: rhLTA4H, LTB4 by immunoassay; single determination or average of two or more; mark after value = form tested: ′ free base, ″ hydrochloride, ^ formate; read-out: IC50
T1 construct: made in house; host or cells: Spodoptera frugiperda (Sf-9) cells, baculovirus (pFastBac1)
T1 sequence (P09960 1-611): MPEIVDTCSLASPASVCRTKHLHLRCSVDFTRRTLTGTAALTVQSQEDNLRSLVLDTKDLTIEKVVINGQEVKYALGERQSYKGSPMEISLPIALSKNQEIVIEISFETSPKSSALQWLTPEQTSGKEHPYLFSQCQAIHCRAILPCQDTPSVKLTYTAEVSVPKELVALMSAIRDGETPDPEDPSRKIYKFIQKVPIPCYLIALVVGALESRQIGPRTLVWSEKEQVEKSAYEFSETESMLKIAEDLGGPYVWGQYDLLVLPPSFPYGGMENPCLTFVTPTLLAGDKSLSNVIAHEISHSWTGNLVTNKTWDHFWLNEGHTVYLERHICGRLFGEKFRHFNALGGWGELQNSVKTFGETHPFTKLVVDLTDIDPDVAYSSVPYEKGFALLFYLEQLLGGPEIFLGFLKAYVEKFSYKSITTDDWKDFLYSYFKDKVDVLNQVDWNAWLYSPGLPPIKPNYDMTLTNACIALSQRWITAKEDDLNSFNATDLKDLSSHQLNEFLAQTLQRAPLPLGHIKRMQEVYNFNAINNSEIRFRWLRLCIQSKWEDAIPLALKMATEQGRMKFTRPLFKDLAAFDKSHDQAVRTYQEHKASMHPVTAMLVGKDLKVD
Procedure, shortened: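 LTB4 formation, measured by enzyme immunoassay, was the read-out. The enzyme, recombinant human LTA4H expressed in Sf-9 insect cells (10 ng per reaction), was exposed to compound for 10 min at room temperature before hydrolysed-ester LTA4 substrate was added for 30 min. Enzyme-free negatives were included.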

[2] = system: LTB4 production in murine blood (LTA4H); test: LTB4 production by calcium ionophore-stimulated murine blood for LTA4H inhibitor activity; format: cell-based, CD-1 mice; conditions: Mus musculus; murine blood diluted 1 in 15, A23187 stimulated; single determination or average; mark after value = form tested: ′ free base, ″ hydrochloride, ^ formate; read-out: IC50
Procedure, shortened: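 LTB4 was measured by ELISA in supernatants after calcium ionophore A23187 stimulation (final 7 μg/mL, 30 min, 37° C) of CD-1 mouse blood collected on heparin. Compound was preincubated with the blood for 15 min beforehand. Values come from one determination or average several.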

Compound	IC50 [1] [µM]	IC50 [2] [µM]
CC(=O)N1CC2CC(CN(Cc3coc4cc(Oc5nc6ncccc6s5)ccc34)C2)C1 [Example 352, 1-{7-[6-(Thiazolo[4,5-b]pyridin-2-yloxy)-benzofuran-3-ylmethyl]-3,7-diaza-bicyclo[3.3.1]non-3-yl}-ethanone]	0.05	0.11
NC(=O)N1C[C@H]2CC[C@@H](C1)N2Cc1coc2cc(Oc3nc4ncccc4s3)ccc12 [Example 210, meso-8-[6-(Thiazolo[4,5-b]pyridin-2-yloxy)-benzofuran-3-ylmethyl]-3,8-diaza-bicyclo[3.2.1]octane-3-carboxylic acid amide]	0.005	0.034
CC1CC(C)CN(Cc2coc3cc(Oc4nc5ncccc5s4)ccc23)C1 (centres unmarked) [Example 281, 2-[3-(3,5-Dimethyl-piperidin-1-ylmethyl)-benzofuran-6-yloxy]-thiazolo[4,5-b]pyridine formate]	0.028	0.077
F[C@@H]1CCN(Cc2coc3cc(Oc4nc5ncccc5s4)ccc23)C1 [Example 328, (R)-2-[3-(3-Fluoro-pyrrolidin-1-ylmethyl)-benzofuran-6-yloxy]-thiazolo[4,5-b]pyridine]	0.012	0.093
CC(=O)N[C@H]1CCN(Cc2coc3cc(Oc4nc5ncccc5s4)ccc23)C1 [Example 310, (S)—N-{1-[6-(Thiazolo[4,5-b]pyridin-2-yloxy)-benzofuran-3-ylmethyl]-pyrrolidin-3-yl}-acetamide]	0.013	0.036
CC(=O)N1[C@@H]2CC[C@H]1C[C@H](NCc1coc3cc(Oc4nc5ncccc5s4)ccc13)C2 [Example 333, meso-exo-1-(3-{[6-(Thiazolo[4,5-b]pyridin-2-yloxy)-benzofuran-3-ylmethyl]-amino}-8-aza-bicyclo[3.2.1]oct-8-yl)-ethanone formate]	0.006	0.024
CC(C)(C)OC(=O)N1C[C@@H]2C[C@H]1CN2Cc1c[nH]c2cc(Oc3nc4ccccc4s3)ccc12 [Example 147, (1S,4S)-5-[6-(Benzothiazol-2-yloxy)-1H-indol-3-ylmethyl]-2,5-diaza-bicyclo[2.2.1]heptane-2-carboxylic acid tert-butyl ester]	0.012	0.568
c1ccc2c(c1)CN(Cc1c[nH]c3cc(Oc4nc5ccccc5s4)ccc13)C2 [Example 6, 2-[3-(1,3-Dihydro-isoindol-2-ylmethyl)-1H-indol-6-yloxy]-benzothiazole]	0.017	0.968

More lines, in order of falling IC50 [1], values ahead:

IC50 [1] [µM]	IC50 [2] [µM]	Compound
0.012	0.61	CC(=O)N1C[C@H]2C[C@@H]1CN2Cc1cc2ncc(Oc3nc4ncccc4s3)cc2o1 [Example 340, (1R,4R)-1-{5-[6-(Thiazolo[4,5-b]pyridin-2-yloxy)-furo[3,2-b]pyridin-2-ylmethyl]-2,5-diaza-bicyclo[2.2.1]hept-2-yl}-ethanone formate]
0.012	0.12	O=C(c1coc2cc(Oc3nc4ncccc4s3)ccc12)N1CCC(C(=O)N2CCCCC2)CC1 [Example 384, [4-(Piperidine-1-carbonyl)-piperidin-1-yl]-[6-(thiazolo[4,5-b]pyridin-2-yloxy)-benzofuran-3-yl]-methanone]
0.01	0.06	O=C(c1coc2cc(Oc3nc4ncccc4s3)ccc12)N1CCC(Oc2ncccn2)CC1 [Example 382, [4-(Pyrimidin-2-yloxy)-piperidin-1-yl]-[6-(thiazolo[4,5-b]pyridin-2-yloxy)-benzofuran-3-yl]-methanone]
0.009	0.069	NC(=O)N1CC2CN(Cc3coc4cc(Oc5nc6ncccc6s5)ccc34)CC2C1 (centres unmarked) [Example 161, 5-[6-(Thiazolo[4,5-b]pyridin-2-yloxy)-benzofuran-3-ylmethyl]-hexahydro-pyrrolo[3,4-c]pyrrole-2-carboxylic acid amide]
0.004	0.019	c1cnc2nc(Oc3ccc4c(CN5CCCCC5)coc4c3)sc2c1 [Example 212, 2-(3-Piperidin-1-ylmethyl-benzofuran-6-yloxy)-thiazolo[4,5-b]pyridine]
